Results: PubChem BioAssay (NCI)
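48-hour exposure; five concentrations; linearly interpolated endpoints. Abbreviation: GI50, concentration required for 50% inhibition of growth. TGI: total growth inhibition.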

Columns and labels:
Experiment in all cases: growth of human tumour cells (NCI), 48 h
SK-OV-3 ovarian = test system: SK-OV-3 ovarian
SN12C renal = test system: SN12C renal
M14 melanoma = test system: M14 melanoma
HL-60(TB) leukemia = test system: HL-60(TB) leukemia
SK-MEL-5 melanoma = test system: SK-MEL-5 melanoma
OVCAR-3 ovarian = test system: OVCAR-3 ovarian
BT-549 breast = test system: BT-549 breast
MDA-MB-231 breast = test system: MDA-MB-231 breast
A549 NSCLC = test system: A549 NSCLC
HT29 colon = test system: HT29 colon
DU-145 prostate = test system: DU-145 prostate
SK-MEL-2 melanoma = test system: SK-MEL-2 melanoma
ACHN renal = test system: ACHN renal
U251 CNS = test system: U251 CNS
HCT-15 colon = test system: HCT-15 colon
UO-31 renal = test system: UO-31 renal
OVCAR-8 ovarian = test system: OVCAR-8 ovarian
MCF7 breast = test system: MCF7 breast
HOP-62 NSCLC = test system: HOP-62 NSCLC
K-562 leukemia = test system: K-562 leukemia
HS 578T breast = test system: HS 578T breast
MOLT-4 leukemia = test system: MOLT-4 leukemia
OVCAR-5 ovarian = test system: OVCAR-5 ovarian
PC-3 prostate = test system: PC-3 prostate
COLO 205 colon = test system: COLO 205 colon
CCRF-CEM leukemia = test system: CCRF-CEM leukemia
NCI-H226 lung = test system: NCI-H226 lung
HCC-2998 colon = test system: HCC-2998 colon
RXF 393 renal = test system: RXF 393 renal
HOP-92 NSCLC = test system: HOP-92 NSCLC
SNB-19 CNS = test system: SNB-19 CNS
NCI-H522 lung = test system: NCI-H522 lung
SF-295 CNS = test system: SF-295 CNS
A498 renal = test system: A498 renal
NCI-H23 lung = test system: NCI-H23 lung
T-47D breast = test system: T-47D breast
UACC-257 melanoma = test system: UACC-257 melanoma
NCI-H460 lung = test system: NCI-H460 lung
NCI/ADR-RES ovarian = test system: NCI/ADR-RES ovarian
RPMI-8226 leukemia = test system: RPMI-8226 leukemia
TK-10 renal = test system: TK-10 renal
EKVX NSCLC = test system: EKVX NSCLC
SNB-75 CNS = test system: SNB-75 CNS
IGROV1 ovarian = test system: IGROV1 ovarian
SF-539 CNS = test system: SF-539 CNS
CAKI-1 renal = test system: CAKI-1 renal
SK-MEL-28 melanoma = test system: SK-MEL-28 melanoma
MALME-3M melanoma = test system: MALME-3M melanoma
OVCAR-4 ovarian = test system: OVCAR-4 ovarian
KM12 colon = test system: KM12 colon
LOX IMVI melanoma = test system: LOX IMVI melanoma
SW-620 colon = test system: SW-620 colon
HCT-116 colon = test system: HCT-116 colon
UACC-62 melanoma = test system: UACC-62 melanoma
786-0 renal = test system: 786-0 renal
MDA-MB-435 = test system: MDA-MB-435
SF-268 CNS = test system: SF-268 CNS

## CC1=C(C)C(=O)C(Nc2cccc(C(F)(F)F)c2)=C(Cl)C1=O
SK-OV-3 ovarian
  GI50: 13 µM
  TGI: 50.7 µM
SN12C renal
  GI50: 4.25 µM
  TGI: 23.4 µM
M14 melanoma
  GI50: 9.96 µM
  TGI: 32.7 µM
HL-60(TB) leukemia
  GI50: 2340 nM
  TGI: 6.54 µM
SK-MEL-5 melanoma
  GI50: 4.14 µM
  TGI: 15.7 µM
OVCAR-3 ovarian
  GI50: 2310 nM
  TGI: 5.58 µM
BT-549 breast
  GI50: 8.56 µM
  TGI: 22.2 µM
MDA-MB-231 breast
  GI50: 1590 nM
  TGI: 3.28 µM
A549 NSCLC
  GI50: 13.3 µM
  TGI: > 100 µM
HT29 colon
  GI50: 7.29 µM
  TGI: 51.8 µM
DU-145 prostate
  GI50: 15.6 µM
  TGI: 34.8 µM
SK-MEL-2 melanoma
  GI50: 8.26 µM
  TGI: 21.7 µM
ACHN renal
  GI50: 1730 nM
  TGI: 3.18 µM
U251 CNS
  GI50: 4.45 µM
  TGI: 17.9 µM
HCT-15 colon
  GI50: 2200 nM
  TGI: 5.05 µM
UO-31 renal
  GI50: 1460 nM
  TGI: 4.18 µM
OVCAR-8 ovarian
  GI50: 2680 nM
  TGI: 6.89 µM
MCF7 breast
  GI50: 1710 nM
  TGI: 3.79 µM
HOP-62 NSCLC
  GI50: 11.5 µM
  TGI: 27.6 µM
K-562 leukemia
  GI50: 2400 nM
  TGI: > 100 µM
HS 578T breast
  GI50: 6 µM
  TGI: 64.4 µM
MOLT-4 leukemia
  GI50: 2220 nM
  TGI: > 100 µM
OVCAR-5 ovarian
  GI50: 1980 nM
  TGI: 4.13 µM
PC-3 prostate
  GI50: 2670 nM
  TGI: 12.8 µM
COLO 205 colon
  GI50: 13 µM
  TGI: 29.3 µM
CCRF-CEM leukemia
  GI50: 1930 nM
  TGI: > 100 µM
NCI-H226 lung
  GI50: 10.8 µM
  TGI: 34.8 µM
HCC-2998 colon
  GI50: 5.88 µM
  TGI: 18.4 µM
RXF 393 renal
  GI50: 1490 nM
  TGI: 2850 nM
HOP-92 NSCLC
  GI50: 1500 nM
  TGI: 3.04 µM
SNB-19 CNS
  GI50: 5.83 µM
  TGI: 23.4 µM
NCI-H522 lung
  GI50: 2240 nM
  TGI: 5.66 µM
SF-295 CNS
  GI50: 6.55 µM
  TGI: 24 µM
A498 renal
  GI50: 13.7 µM
  TGI: 45.2 µM
NCI-H23 lung
  GI50: 6.87 µM
  TGI: 24 µM
T-47D breast
  GI50: 1170 nM
  TGI: 3.6 µM
UACC-257 melanoma
  GI50: 2610 nM
  TGI: 6.72 µM
NCI-H460 lung
  GI50: 11.6 µM
  TGI: 32.2 µM
NCI/ADR-RES ovarian
  GI50: 3.16 µM
  TGI: 42.3 µM
RPMI-8226 leukemia
  GI50: 1320 nM
  TGI: 7.32 µM
TK-10 renal
  GI50: 19 µM
  TGI: 37 µM
EKVX NSCLC
  GI50: 1490 nM
  TGI: 3.73 µM
SNB-75 CNS
  GI50: 1160 nM
  TGI: 13.6 µM
IGROV1 ovarian
  GI50: 1420 nM
  TGI: 3.19 µM
SF-539 CNS
  GI50: 2400 nM
  TGI: 6.61 µM
CAKI-1 renal
  GI50: 1940 nM
  TGI: 9.11 µM
SK-MEL-28 melanoma
  GI50: 3.36 µM
  TGI: 10.8 µM
MALME-3M melanoma
  GI50: 1980 nM
  TGI: 6.04 µM
OVCAR-4 ovarian
  GI50: 1580 nM
  TGI: 2970 nM
KM12 colon
  GI50: 3.58 µM
  TGI: 25.7 µM
LOX IMVI melanoma
  GI50: 1690 nM
  TGI: 3.32 µM
SW-620 colon
  GI50: 2090 nM
  TGI: 4.73 µM
HCT-116 colon
  GI50: 1930 nM
  TGI: 3.99 µM
UACC-62 melanoma
  GI50: 3.46 µM
  TGI: 16.1 µM
786-0 renal
  GI50: 10.6 µM
  TGI: 24.3 µM
MDA-MB-435
  GI50: 5.98 µM
  TGI: 19.5 µM
SF-268 CNS
  GI50: 4.99 µM
  TGI: 28.6 µM
